Activity calls are given as the source filed them. Rule as the data show it, for most assays here: actives have a measured EC50 and inactives only a lower limit.
Assays:
[1] = molecular target: T1, Rac GTPase-activating protein 1 (Homo sapiens, UniProt Q9H0H5); experiment: MgcRacGAP GTPase-activating activity inhibitors, confirmation, biochemical, ADP Hunter fluorescence, primary and confirmatory (AID 624330); format: functional
T1 sequence (Q9H0H5 whole entry): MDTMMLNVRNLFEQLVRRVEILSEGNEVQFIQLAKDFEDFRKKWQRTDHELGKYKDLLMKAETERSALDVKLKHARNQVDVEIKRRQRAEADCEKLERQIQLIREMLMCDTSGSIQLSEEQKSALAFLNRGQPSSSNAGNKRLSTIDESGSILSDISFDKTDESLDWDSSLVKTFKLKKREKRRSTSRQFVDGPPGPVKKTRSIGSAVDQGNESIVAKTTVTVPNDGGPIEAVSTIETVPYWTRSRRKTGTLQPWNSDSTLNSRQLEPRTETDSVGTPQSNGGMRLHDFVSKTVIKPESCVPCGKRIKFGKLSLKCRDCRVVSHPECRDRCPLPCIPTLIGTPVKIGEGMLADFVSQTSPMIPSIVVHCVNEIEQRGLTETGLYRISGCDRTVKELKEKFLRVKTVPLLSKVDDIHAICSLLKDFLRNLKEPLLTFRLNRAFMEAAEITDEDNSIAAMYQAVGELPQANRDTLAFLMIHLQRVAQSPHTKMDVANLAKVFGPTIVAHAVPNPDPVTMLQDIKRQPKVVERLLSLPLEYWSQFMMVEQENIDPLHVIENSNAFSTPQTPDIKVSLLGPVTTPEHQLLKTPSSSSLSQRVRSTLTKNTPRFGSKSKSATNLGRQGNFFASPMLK

H4 = experiment: Luminescence Cell-Based Dose Response HTS to Identify Activators of 5'UTR Stem-Loop Driven Prion Protein mRNA Translation in H4 Neuroglioblastoma Cells. [Related pubchem assays: 1829 (Project Summary), 1814 (Primary HTS)]; format: functional; conditions: Homo sapiens
cells [2] = format: functional, cell-based
[3] = Luminescence Cell-Based Dose Confirmation HTS to Identify Activators of 5'UTR Stem-Loop Driven Alpha-Synuclein mRNA Translation in H4 Neuroglioblastoma Cells. [Related pubchem assays: 1829 (Project Summary), 1814 (Primary HTS)]; format: functional
cells [4] = format: functional, cell-based; remark: listed apart in the source
[5] = Luminescence Cell-Based Dose Response HTS to Identify Activators of Luciferase Translation or Activity in H4 […] Cells. [Related pubchem assays: 1829 (Project Summary), 1814 (Primary HTS)]; format: functional
[6] = NIH-3T3 fibroblast cytotoxicity, dose response, cytotoxicity control, cell-based, fluorescence, Alamar Blue, secondary assay (AID 2327); format: functional;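 also: NIH-3T3 mouse fibroblasts cultured with fluconazole at 8 µg/mL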
[7] = C. albicans growth with fluconazole, confirmation, fluorescence, retest (AID 2467); format: functional, cell-based
[8] = molecular target: Induced myeloid leukemia cell differentiation protein Mcl-1 (Homo sapiens, UniProt Q07820); format: functional
[9] = molecular target: T2, Polyadenylate-binding protein 1 (Homo sapiens, UniProt P11940); experiment: PABP1 MLLE–PAM2 binding inhibitor potency, dose response, biochemical, fluorescence polarization, FITC-PAM2 peptide (AID 602259); format: functional; conditions: read-out: IC50_Mean
[10] = molecular target: T3, RNA-binding protein pos-1 (Caenorhabditis elegans, UniProt G5EF15); experiment: inhibitors of POS-1/mex-3 RNA binding, dose response, biochemical, fluorescence polarization (AID 1964);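 also: purified POS-1 fused to maltose binding protein made in E. coli; potency of compounds blocking POS-1 binding to fluorescent RNA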
T3 sequence (G5EF15 whole entry): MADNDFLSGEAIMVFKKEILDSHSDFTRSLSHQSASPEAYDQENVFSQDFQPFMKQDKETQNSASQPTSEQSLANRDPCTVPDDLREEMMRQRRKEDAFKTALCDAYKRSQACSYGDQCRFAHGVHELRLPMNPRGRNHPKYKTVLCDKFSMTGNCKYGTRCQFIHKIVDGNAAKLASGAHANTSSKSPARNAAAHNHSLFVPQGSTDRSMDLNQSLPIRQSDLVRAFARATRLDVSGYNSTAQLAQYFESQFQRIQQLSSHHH

[11] = molecular target: T4, Replicative DNA helicase DnaB (Mycobacterium tuberculosis, UniProt P9WMR3); experiment: DnaB intein splicing inhibitors, dose response, biochemical, cell-free fluorescence (AID 449749); format: functional
T4 sequence (P9WMR3 whole entry): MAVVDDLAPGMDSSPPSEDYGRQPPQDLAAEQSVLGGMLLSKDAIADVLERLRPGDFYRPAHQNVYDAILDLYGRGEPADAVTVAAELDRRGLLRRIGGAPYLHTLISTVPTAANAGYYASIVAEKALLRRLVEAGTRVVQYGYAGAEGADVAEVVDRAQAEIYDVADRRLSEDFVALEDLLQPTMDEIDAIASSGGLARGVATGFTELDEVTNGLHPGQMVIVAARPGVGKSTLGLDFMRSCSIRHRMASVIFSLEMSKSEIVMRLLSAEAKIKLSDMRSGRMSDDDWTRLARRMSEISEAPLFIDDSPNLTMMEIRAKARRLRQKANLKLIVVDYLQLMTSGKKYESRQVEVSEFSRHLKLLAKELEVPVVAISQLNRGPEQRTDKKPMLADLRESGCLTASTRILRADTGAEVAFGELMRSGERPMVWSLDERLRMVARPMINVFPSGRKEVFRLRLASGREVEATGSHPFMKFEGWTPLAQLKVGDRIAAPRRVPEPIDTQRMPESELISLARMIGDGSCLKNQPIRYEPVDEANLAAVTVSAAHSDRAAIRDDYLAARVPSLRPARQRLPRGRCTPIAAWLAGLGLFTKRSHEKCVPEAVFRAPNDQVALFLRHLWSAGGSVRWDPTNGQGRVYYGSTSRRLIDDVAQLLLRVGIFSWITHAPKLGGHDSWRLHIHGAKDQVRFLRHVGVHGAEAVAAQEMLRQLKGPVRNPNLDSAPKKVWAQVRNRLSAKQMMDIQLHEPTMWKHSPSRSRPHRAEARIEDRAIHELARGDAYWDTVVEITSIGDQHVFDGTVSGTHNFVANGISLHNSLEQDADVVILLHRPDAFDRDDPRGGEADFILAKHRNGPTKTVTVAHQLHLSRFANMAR

[12] = molecular target: T5, Zinc finger protein mex-5 (Caenorhabditis elegans, UniProt Q9XUB2); experiment: MEX-5/TCR-2 RNA interaction inhibitors, dose response, biochemical, C. elegans, fluorescence polarization (AID 1960)
T5 sequence (Q9XUB2 whole entry): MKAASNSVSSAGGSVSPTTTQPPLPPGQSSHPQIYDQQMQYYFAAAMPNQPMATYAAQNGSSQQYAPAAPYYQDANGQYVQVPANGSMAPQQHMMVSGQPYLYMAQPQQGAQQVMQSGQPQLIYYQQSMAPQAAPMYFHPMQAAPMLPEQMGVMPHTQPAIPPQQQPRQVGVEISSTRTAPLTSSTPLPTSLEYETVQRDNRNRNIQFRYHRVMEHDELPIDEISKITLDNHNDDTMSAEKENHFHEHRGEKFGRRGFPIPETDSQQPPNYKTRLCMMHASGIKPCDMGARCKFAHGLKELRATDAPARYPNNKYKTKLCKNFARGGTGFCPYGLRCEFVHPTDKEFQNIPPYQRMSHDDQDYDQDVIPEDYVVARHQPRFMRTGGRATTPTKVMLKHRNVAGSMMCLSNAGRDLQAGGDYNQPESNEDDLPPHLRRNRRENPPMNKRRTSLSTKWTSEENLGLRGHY

[13] = molecular target: T2, Polyadenylate-binding protein 1; experiment: PABP1 MLLE–PAM2 interaction inhibitors, dose response, miRNA deadenylation inhibitor project, biochemical, fluorescence polarization, Cy5-PAM2 peptide, secondary (AID 602260); format: functional; conditions: read-out: IC50_Mean
Protein RecA = molecular target: T6, Protein RecA (Mycobacterium tuberculosis, UniProt P9WHJ3); experiment: Fluorescence Cell-Free Homogeneous Dose Retest to Identify Inhibitors of RecA-Intein Splicing Activity. [Related pubchem assays (depositor defined):AID2097, AID2223, AID489010, AID492950]; format: functional
T6 sequence (P9WHJ3 whole entry): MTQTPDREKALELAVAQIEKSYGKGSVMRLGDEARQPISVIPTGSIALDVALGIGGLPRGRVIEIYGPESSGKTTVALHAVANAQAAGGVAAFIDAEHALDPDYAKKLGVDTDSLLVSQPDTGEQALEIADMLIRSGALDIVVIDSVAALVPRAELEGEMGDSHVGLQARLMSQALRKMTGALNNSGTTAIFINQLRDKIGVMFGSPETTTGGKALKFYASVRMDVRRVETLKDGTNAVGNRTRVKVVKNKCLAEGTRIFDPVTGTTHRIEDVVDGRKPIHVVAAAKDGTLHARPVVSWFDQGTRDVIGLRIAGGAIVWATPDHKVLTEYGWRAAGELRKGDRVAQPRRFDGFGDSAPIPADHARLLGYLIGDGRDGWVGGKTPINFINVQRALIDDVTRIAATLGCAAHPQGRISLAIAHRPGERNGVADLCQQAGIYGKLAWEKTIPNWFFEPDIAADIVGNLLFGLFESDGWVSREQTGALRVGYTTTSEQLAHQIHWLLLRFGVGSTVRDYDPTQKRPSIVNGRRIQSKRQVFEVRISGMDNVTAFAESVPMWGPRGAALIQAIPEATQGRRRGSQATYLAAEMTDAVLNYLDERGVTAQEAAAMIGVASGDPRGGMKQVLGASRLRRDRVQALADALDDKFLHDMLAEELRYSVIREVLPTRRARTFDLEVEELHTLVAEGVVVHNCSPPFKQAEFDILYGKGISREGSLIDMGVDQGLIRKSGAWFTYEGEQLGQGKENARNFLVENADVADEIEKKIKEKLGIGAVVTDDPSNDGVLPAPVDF

Large T antigen = Large T antigen (Simian virus 40, UniProt P03070); format: functional, Betapolyomavirus macacae;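 also: Confirmatory-stage PubChem screen for compounds that inhibit SV40 T antigen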
Protein skinhead-1 = molecular target: T7, Protein skinhead-1 (Caenorhabditis elegans, UniProt P34707); format: functional
T7 sequence (P34707 whole entry): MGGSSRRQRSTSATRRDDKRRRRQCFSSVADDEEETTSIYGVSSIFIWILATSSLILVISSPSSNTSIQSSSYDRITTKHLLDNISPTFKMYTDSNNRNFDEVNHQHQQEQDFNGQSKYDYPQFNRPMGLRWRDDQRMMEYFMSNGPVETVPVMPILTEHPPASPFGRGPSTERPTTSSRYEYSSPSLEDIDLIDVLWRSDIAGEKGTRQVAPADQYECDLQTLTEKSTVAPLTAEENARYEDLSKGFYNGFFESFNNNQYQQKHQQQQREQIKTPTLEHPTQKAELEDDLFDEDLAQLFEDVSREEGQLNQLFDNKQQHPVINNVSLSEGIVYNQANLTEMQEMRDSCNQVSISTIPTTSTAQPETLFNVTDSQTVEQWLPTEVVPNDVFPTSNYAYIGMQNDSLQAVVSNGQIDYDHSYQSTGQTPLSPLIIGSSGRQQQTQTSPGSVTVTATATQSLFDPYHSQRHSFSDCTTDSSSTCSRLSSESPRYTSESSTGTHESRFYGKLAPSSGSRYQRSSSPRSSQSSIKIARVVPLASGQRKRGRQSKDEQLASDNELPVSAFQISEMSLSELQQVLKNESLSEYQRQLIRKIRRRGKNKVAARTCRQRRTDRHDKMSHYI

Chain of Induced myeloid leukemia cell differentiation protein Mcl-1 (Q07820 whole entry): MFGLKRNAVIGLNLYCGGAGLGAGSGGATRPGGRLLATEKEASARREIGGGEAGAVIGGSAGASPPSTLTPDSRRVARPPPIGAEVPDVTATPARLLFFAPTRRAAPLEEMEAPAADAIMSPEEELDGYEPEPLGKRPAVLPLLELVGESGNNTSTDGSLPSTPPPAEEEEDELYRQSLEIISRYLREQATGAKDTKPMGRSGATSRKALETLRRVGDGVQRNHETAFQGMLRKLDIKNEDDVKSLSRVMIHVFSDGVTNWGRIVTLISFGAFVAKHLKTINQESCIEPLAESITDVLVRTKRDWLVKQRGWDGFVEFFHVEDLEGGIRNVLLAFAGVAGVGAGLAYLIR
T2 sequence (P11940 whole entry, the tested form may be a part): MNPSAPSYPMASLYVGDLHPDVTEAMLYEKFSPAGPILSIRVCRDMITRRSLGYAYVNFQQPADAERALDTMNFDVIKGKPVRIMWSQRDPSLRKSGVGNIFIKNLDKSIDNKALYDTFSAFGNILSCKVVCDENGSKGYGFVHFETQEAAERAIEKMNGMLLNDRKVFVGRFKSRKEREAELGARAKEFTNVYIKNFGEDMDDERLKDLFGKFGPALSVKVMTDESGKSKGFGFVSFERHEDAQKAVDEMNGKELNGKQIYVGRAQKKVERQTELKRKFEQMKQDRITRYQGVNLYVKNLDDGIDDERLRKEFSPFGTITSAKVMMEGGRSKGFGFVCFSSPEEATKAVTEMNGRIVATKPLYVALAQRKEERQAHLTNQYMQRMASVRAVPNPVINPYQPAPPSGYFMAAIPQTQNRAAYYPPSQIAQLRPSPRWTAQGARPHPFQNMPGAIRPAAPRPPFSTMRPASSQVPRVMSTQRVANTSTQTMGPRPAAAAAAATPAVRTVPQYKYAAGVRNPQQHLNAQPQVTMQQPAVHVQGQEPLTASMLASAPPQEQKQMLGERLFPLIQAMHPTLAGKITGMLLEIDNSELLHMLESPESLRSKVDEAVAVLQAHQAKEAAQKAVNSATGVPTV
Chain of Large T antigen (P03070 whole entry): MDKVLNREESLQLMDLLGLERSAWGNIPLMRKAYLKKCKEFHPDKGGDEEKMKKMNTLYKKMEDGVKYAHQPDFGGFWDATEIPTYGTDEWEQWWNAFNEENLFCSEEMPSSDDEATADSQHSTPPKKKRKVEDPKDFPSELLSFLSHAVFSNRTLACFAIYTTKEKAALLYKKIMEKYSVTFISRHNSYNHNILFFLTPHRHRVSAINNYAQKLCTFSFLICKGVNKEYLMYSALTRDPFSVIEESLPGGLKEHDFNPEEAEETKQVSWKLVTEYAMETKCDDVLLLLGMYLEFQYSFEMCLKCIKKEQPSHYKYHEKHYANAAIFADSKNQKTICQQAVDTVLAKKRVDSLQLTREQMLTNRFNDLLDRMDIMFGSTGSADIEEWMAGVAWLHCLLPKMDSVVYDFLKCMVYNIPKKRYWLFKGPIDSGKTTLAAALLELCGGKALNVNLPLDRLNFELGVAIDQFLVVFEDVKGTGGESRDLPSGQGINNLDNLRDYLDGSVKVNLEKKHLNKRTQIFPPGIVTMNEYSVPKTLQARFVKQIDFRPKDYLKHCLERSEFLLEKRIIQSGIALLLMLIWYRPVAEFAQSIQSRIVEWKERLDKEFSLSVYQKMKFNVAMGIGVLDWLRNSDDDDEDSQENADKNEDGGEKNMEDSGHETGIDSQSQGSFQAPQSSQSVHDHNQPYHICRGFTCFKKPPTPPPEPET

## Cc1cc(NC(=O)CN2CCN(C)CC2)no1
[1]
  IC50: 157 µM (active)

## Cc1ccc2[nH]c(N3CCN(C)CC3)nc2c1
H4
  EC50: 20 µM (active)
Cells [2]
  EC50: > 350 µM (not active)
[3]
  EC50: 3.62 µM (active)
Cells [4]
  EC50: > 350 µM (not active)
[5]
  EC50: 18.7 µM (active)

## COc1cccc(N2CC(C(=O)Oc3ccc4ccccc4c3)CC2=O)c1 (stereo unspecified)
[1]
  IC50: 16.1 µM (active)

## Oc1ccc(CN2CCC(Cc3ccccc3)CC2)c2cccnc12
Cells [2]
  EC50: > 350 µM (not active)
Cells [4]
  EC50: 6.9 µM (active)
[6]
  EC50: 22.3 µM (active)
[7]
  EC50: 1.99 µM (active)

## COc1ccccc1CNCC(=O)Nc1ccc(N(C)C)cc1
[1]
  IC50: 32.1 µM (active)

## Cc1ccc(S(=O)(=O)Nc2nsc(N)n2)cc1
[1]
  IC50: 82.8 µM (active)

## CCN=c1ccc(Br)cc(C(=O)/C=C/c2ccc(Cl)cc2)c1O
[8]
  IC50: 3.55 µM (active)

## CCOC(=O)CN(C(=O)COc1nc(C)cc(C)c1C#N)c1cccc(Cl)c1
Cells [2]
  EC50: > 350 µM (not active)
Cells [4]
  EC50: > 350 µM (not active)

## CCN1C(=O)/C(=C/c2ccc3c(c2)CCN3CCCCl)C(=O)NC1=S
[8]
  IC50: 3.4 µM (active)

## CCN(CC)C(=O)CSc1nnc2nnc3cc(Cl)ccc3n12
[9]
  IC50: 34.4 µM (inactive)
[10]
  EC50: 23.2 µM (active)
[11]
  AC50: > 380 µM (inactive)
[12]
  EC50: 18.5 µM (active)
[13]
  IC50: > 66 µM (inactive)
Protein RecA
  EC50: 0.499 µM (active)

## O=C1NC(=O)C(=Cc2cccs2)C(=O)N1
[1]
  IC50: 188 µM (active)

## CCN1CCN(c2ccc([N+](=O)[O-])cc2C=C2C(=O)NC(=O)NC2=O)CC1
Cells [2]
  EC50: > 350 µM (not active)
Cells [4]
  EC50: > 350 µM (not active)

## Cc1ccc(O)c(NC(=O)c2ccc3c(c2)C(=O)N(Cc2ccco2)C3=O)c1
Cells [2]
  EC50: 52.2 µM (active)
Cells [4]
  EC50: > 350 µM (not active)

## CSCc1nc2sc(C(=O)Nc3nc(C)cs3)c(C)c2c(=O)[nH]1
[8]
  IC50: 3.89 µM (active)

## O=C(N/N=C/c1ccc(O)c(O)c1)c1ccc(CSc2cccc3cccnc23)cc1
Large T antigen
  IC50: 5.43 µM (active)
[8]
  IC50: 4.61 µM (active)

## C/C(=C\C(=O)OCC(=O)NCc1ccccc1)C(=O)OCC(=O)NCc1ccccc1
Cells [2]
  EC50: > 350 µM (not active)
Cells [4]
  EC50: > 350 µM (not active)

## Cc1cc2cc(CNC(=O)Cc3ccc([N+](=O)[O-])cc3)ccc2n1C
[9]
  IC50: > 66 µM (inactive)
[13]
  IC50: > 66 µM (inactive)
Protein skinhead-1
  IC50: > 100 µM (inactive)

From ChEMBL document CHEMBL1201862, “PubChem BioAssay data set” (2004)
